US6914045B2, “Glycopeptide antibiotics” (Wyeth Holdings Corporation, priority 2001, dated 2005)
In brackets after ≈: the same amount, converted by molar mass. Blank lines part the entries; values can stand above or below the compound they belong to.

Experiments:
Experiment in all cases: in vitro antibacterial evaluation, MIC by broth dilution
Format in all cases: cell-based
Escherichia coli = conditions: 18 hours at 35° C.
Enterococcus sp. = conditions: broth dilution, 18 hours at 35° C.
Outline: (§1)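 Inoculum 5×10^5 CFU/mL; concentrations 64 to 0.06 μg/mL; MIC defined as lowest inhibitory level. Conducted by broth dilution under NCCLS guidelines.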

Staphylococcus sp. = conditions: broth dilution, 18 hours at 35° C.; for MIC Staphylococcus aureus (GC 1131): strain GC 1131; for MIC Staphylococcus aureus (ATCC 29213): strain ATCC 29213; for MIC Staphylococcus aureus (GC 4541): strain GC 4541; for MIC Staphylococcus aureus-SMITH (GC 4543): strain GC 4543; for MIC Coagulase Negative Staphylococcus (GC 4547): strain GC 4547; for MIC Coagulase Negative Staphylococcus (GC 4548): strain GC 4548; for MIC Coagulase Negative Staphylococcus (GC 4549): strain GC 4549; for MIC Coagulase Negative Staphylococcus (GC 6257): strain GC 6257
Outline: as §1

Streptococcus sp. = conditions: broth dilution, 18 hours at 35° C.
Outline: as §1

[1] = inoculum 5×10^5 CFU/mL, strain ATCC 29212
[2] = inoculum 5×10^5 CFU/mL, strain GC 2242
[3] = inoculum 5×10^5 CFU/mL, strain GC 2243
[4] = inoculum 5×10^5 CFU/mL, strain GC 4556
[5] = inoculum 5×10^5 CFU/mL, strain GC 4558
[6] = inoculum 5×10^5 CFU/mL, strain GC 6189
[7] = inoculum 5×10^5 CFU/mL, strain ATCC 6301
[8] = inoculum 5×10^5 CFU/mL, strain GC 1894

- MIC Escherichia coli (ATCC 25922) (Escherichia coli): >128 µg/mL
- MIC Escherichia coli (GC 4559) (Escherichia coli): >128 µg/mL
- MIC Escherichia coli (GC 4560) (Escherichia coli): 128 µg/mL (≈ 68.6 µM)
- MIC Enterococcus avium (GC 4558) (Enterococcus sp.): 16 µg/mL (≈ 8.58 µM)
- MIC Enterococcus faecalis (ATCC 29212) (Enterococcus sp.): 64 µg/mL (≈ 34.3 µM)
- MIC Enterococcus faecalis (GC 2242) (Enterococcus sp.): 64 µg/mL (≈ 34.3 µM)
- MIC Enterococcus faecalis (GC 2691) (Enterococcus sp.): 16 µg/mL (≈ 8.58 µM)
- MIC Enterococcus faecalis (GC 3059) (Enterococcus sp.): 128 µg/mL (≈ 68.6 µM)
- MIC Enterococcus faecalis (GC 4552) (Enterococcus sp.): 64 µg/mL (≈ 34.3 µM)
- MIC Enterococcus faecalis (GC 4553) (Enterococcus sp.): 32 µg/mL (≈ 17.2 µM)
- MIC Enterococcus faecalis (GC 4554) (Enterococcus sp.): 64 µg/mL (≈ 34.3 µM)
- MIC Enterococcus faecalis (GC 6189) (Enterococcus sp.): 16 µg/mL (≈ 8.58 µM)
- MIC Enterococcus faecium (GC 2243) (Enterococcus sp.): 16 µg/mL (≈ 8.58 µM)
- MIC Enterococcus faecium (GC 4556) (Enterococcus sp.): 128 µg/mL (≈ 68.6 µM)
- MIC Enterococcus faecium (GC 4557) (Enterococcus sp.): 16 µg/mL (≈ 8.58 µM)
- MIC Enterococcus faecalis (ATCC 29212) (Enterococcus sp.; [1]): 64 µg/mL (≈ 34.3 µM)
- MIC Enterococcus faecalis (GC 2242) (Enterococcus sp.; [2]): 64 µg/mL (≈ 34.3 µM)
- MIC Enterococcus faecium (GC 2243) (Enterococcus sp.; [3]): 16 µg/mL (≈ 8.58 µM)
- MIC Enterococcus faecalis (GC 2691) (Enterococcus sp.; inoculum 5×10^5 CFU/mL, strain GC 2691): 16 µg/mL (≈ 8.58 µM)
- MIC Enterococcus faecalis (GC 3059) (Enterococcus sp.; inoculum 5×10^5 CFU/mL, strain GC 3059): 128 µg/mL (≈ 68.6 µM)
- MIC Enterococcus faecalis (GC 4552) (Enterococcus sp.; inoculum 5×10^5 CFU/mL, strain GC 4552): 64 µg/mL (≈ 34.3 µM)
- MIC Enterococcus faecalis (GC 4553) (Enterococcus sp.; inoculum 5×10^5 CFU/mL, strain GC 4553): 32 µg/mL (≈ 17.2 µM)
- MIC Enterococcus faecalis (GC 4554) (Enterococcus sp.; inoculum 5×10^5 CFU/mL, strain GC 4554): 64 µg/mL (≈ 34.3 µM)
- MIC Enterococcus faecium (GC 4556) (Enterococcus sp.; [4]): 128 µg/mL (≈ 68.6 µM)
- MIC Enterococcus faecium (GC 4557) (Enterococcus sp.; inoculum 5×10^5 CFU/mL, strain GC 4557): 16 µg/mL (≈ 8.58 µM)
- MIC Enterococcus avium (GC 4558) (Enterococcus sp.; [5]): 16 µg/mL (≈ 8.58 µM)
- MIC Enterococcus faecalis (GC 6189) (Enterococcus sp.; [6]): 16 µg/mL (≈ 8.58 µM)
- MIC Staphylococcus aureus (GC 1131) (Staphylococcus sp.; inoculum 5×10^5 CFU/mL): 64 µg/mL (≈ 34.3 µM)
- MIC Staphylococcus aureus (ATCC 29213) (Staphylococcus sp.): 64 µg/mL (≈ 34.3 µM)
- MIC Staphylococcus aureus (GC 1131) (Staphylococcus sp.): 64 µg/mL (≈ 34.3 µM)
- MIC Staphylococcus aureus (GC 3051) (Staphylococcus sp.; strain GC 3051): 64 µg/mL (≈ 34.3 µM)
- MIC Staphylococcus aureus (GC 3053) (Staphylococcus sp.; strain GC 3053): 32 µg/mL (≈ 17.2 µM)
- MIC Staphylococcus aureus (GC 4541) (Staphylococcus sp.): 64 µg/mL (≈ 34.3 µM)
- MIC Staphylococcus aureus (GC 4542) (Staphylococcus sp.; strain GC 4542): 64 µg/mL (≈ 34.3 µM)
- MIC Staphylococcus aureus-SMITH (GC 4543) (Staphylococcus sp.): 64 µg/mL (≈ 34.3 µM)
- MIC Staphylococcus aureus (GC 4544) (Staphylococcus sp.; strain GC 4544): 64 µg/mL (≈ 34.3 µM)
- MIC Staphylococcus aureus (GC 4545) (Staphylococcus sp.; strain GC 4545): 64 µg/mL (≈ 34.3 µM)
- MIC Coagulase Negative Staphylococcus (GC 4547) (Staphylococcus sp.): 128 µg/mL (≈ 68.6 µM)
- MIC Coagulase Negative Staphylococcus (GC 4548) (Staphylococcus sp.): 16 µg/mL (≈ 8.58 µM)
- MIC Coagulase Negative Staphylococcus (GC 4549) (Staphylococcus sp.): 64 µg/mL (≈ 34.3 µM)
- MIC Coagulase Negative Staphylococcus (GC 4551) (Staphylococcus sp.; strain GC 4551): 32 µg/mL (≈ 17.2 µM)
- MIC Coagulase Negative Staphylococcus (GC 6257) (Staphylococcus sp.): 32 µg/mL (≈ 17.2 µM)
- MIC Streptococcus agalactiae (GC 4564) (Streptococcus sp.): <0.12 µg/mL
- MIC Streptococcus pneumoniae (ATCC 6301) (Streptococcus sp.): <0.12 µg/mL
- MIC Streptococcus pneumoniae (GC 1894) (Streptococcus sp.): <0.12 µg/mL
- MIC Streptococcus pneumoniae (GC 4565) (Streptococcus sp.): <0.12 µg/mL
- MIC Streptococcus pyogenes (GC 4563) (Streptococcus sp.): 0.5 µg/mL (≈ 0.268 µM)
- MIC Streptococcus pneumoniae (ATCC 6301) (Streptococcus sp.; [7]): <0.12 µg/mL
- MIC Streptococcus pneumoniae (GC 1894) (Streptococcus sp.; [8]): <0.12 µg/mL
- MIC Streptococcus pyogenes (GC 4563) (Streptococcus sp.; inoculum 5×10^5 CFU/mL, strain GC 4563): 0.5 µg/mL (≈ 0.268 µM)
- MIC Streptococcus agalactiae (GC 4564) (Streptococcus sp.; inoculum 5×10^5 CFU/mL, strain GC 4564): <0.12 µg/mL
- MIC Streptococcus pneumoniae (GC 4565) (Streptococcus sp.; inoculum 5×10^5 CFU/mL, strain GC 4565): <0.12 µg/mL
SMILES: CC(c1ccccc1)C1NC(=O)CNC(=O)C(CO)NC(=O)C(C(O)C2CNC(=N)N2C2OC(CO)C(O)C(O)C2O)NC(=O)C(C(O)C2CNC(=N)N2)NC(=O)C(Cc2ccc(OC3OC(CO)C(OC4OC5COC(c6ccc(C(=O)c7cc(I)c(I)c(I)c7)cc6)OC5C(O)C4O)C(O)C3O)cc2)NC1=O (centres unmarked) [Example 187]
- MIC Staphylococcus haemolyticus (GC 4546) (Staphylococcus sp.; strain GC 4546): 128 µg/mL (≈ 68.6 µM)

- MIC Escherichia coli (ATCC 25922) (Escherichia coli): 64 µg/mL (≈ 43.8 µM)
- MIC Escherichia coli (GC 4559) (Escherichia coli): >64 µg/mL
- MIC Escherichia coli (GC 4560) (Escherichia coli): 4 µg/mL (≈ 2.74 µM)
- MIC Enterococcus avium (GC 4558) (Enterococcus sp.): 4 µg/mL (≈ 2.74 µM)
- MIC Enterococcus faecalis (ATCC 29212) (Enterococcus sp.): 4 µg/mL (≈ 2.74 µM)
- MIC Enterococcus faecalis (GC 2242) (Enterococcus sp.): 4 µg/mL (≈ 2.74 µM)
- MIC Enterococcus faecalis (GC 6189) (Enterococcus sp.): 1 µg/mL (≈ 0.685 µM)
- MIC Enterococcus faecium (GC 2243) (Enterococcus sp.): 1 µg/mL (≈ 0.685 µM)
- MIC Enterococcus faecium (GC 4556) (Enterococcus sp.): 4 µg/mL (≈ 2.74 µM)
- MIC Enterococcus faecalis (ATCC 29212) (Enterococcus sp.; [1]): 4 µg/mL (≈ 2.74 µM)
- MIC Enterococcus faecalis (GC 2242) (Enterococcus sp.; [2]): 4 µg/mL (≈ 2.74 µM)
- MIC Enterococcus faecium (GC 2243) (Enterococcus sp.; [3]): 1 µg/mL (≈ 0.685 µM)
- MIC Enterococcus faecium (GC 4556) (Enterococcus sp.; [4]): 4 µg/mL (≈ 2.74 µM)
- MIC Enterococcus avium (GC 4558) (Enterococcus sp.; [5]): 4 µg/mL (≈ 2.74 µM)
- MIC Enterococcus faecalis (GC 6189) (Enterococcus sp.; [6]): 1 µg/mL (≈ 0.685 µM)
- MIC Staphylococcus aureus (ATCC 29213) (Staphylococcus sp.): 4 µg/mL (≈ 2.74 µM)
- MIC Staphylococcus aureus (GC 1131) (Staphylococcus sp.): 2 µg/mL (≈ 1.37 µM)
- MIC Staphylococcus aureus (GC 4541) (Staphylococcus sp.): 2 µg/mL (≈ 1.37 µM)
- MIC Staphylococcus aureus-SMITH (GC 4543) (Staphylococcus sp.): 1 µg/mL (≈ 0.685 µM)
- MIC Coagulase Negative Staphylococcus (GC 4547) (Staphylococcus sp.): 4 µg/mL (≈ 2.74 µM)
- MIC Coagulase Negative Staphylococcus (GC 4548) (Staphylococcus sp.): 1 µg/mL (≈ 0.685 µM)
- MIC Coagulase Negative Staphylococcus (GC 4549) (Staphylococcus sp.): 1 µg/mL (≈ 0.685 µM)
- MIC Coagulase Negative Staphylococcus (GC 6257) (Staphylococcus sp.): 2 µg/mL (≈ 1.37 µM)
- MIC Streptococcus pneumoniae (ATCC 6301) (Streptococcus sp.): <0.06 µg/mL
- MIC Streptococcus pneumoniae (GC 1894) (Streptococcus sp.): <0.06 µg/mL
- MIC Streptococcus pneumoniae (ATCC 6301) (Streptococcus sp.; [7]): <0.06 µg/mL
- MIC Streptococcus pneumoniae (GC 1894) (Streptococcus sp.; [8]): <0.06 µg/mL
SMILES: CC(c1ccccc1)C1NC(=O)CNC(=O)C(CO)NC(=O)C(C(O)C2CNC(=N)N2C2OC(CO)C(O)C(O)C2O)NC(=O)C(C(O)C2CNC(=N)N2)NC(=O)C(Cc2ccc(OC3OC(CO)C(OC4OC5COC6(CCCCCCCCCCC6)OC5C(O)C4O)C(O)C3O)cc2)NC1=O (centres unmarked) [Example 209]
